{"source": "patent US20230331781A1", "about": "“PAR4 DERIVED PEPTIDES, ANALOGS AND USES THEREOF” (Yissum Research Development Company of the Hebrew …, priority 2019, published 2023)", "test_system": "RKO/hPar4 tumors", "assay": "Pre-formed RKO/hPar4 tumors in nude mice", "format": "in vivo", "details": "injection s.c. near tumor started 3 weeks post inoculation (~1 cm tumors), 5 mg/kg", "method": "Tumors generated by the RKO/Par4 clone/s (1×10^6 cells, subcutaneously). Injections of the inhibitor Pc(4-4) have started 3 weeks post cell inoculation (5 mg/kg, every other day). FIG. 12B—levels of Par4 in stable clone/s of RKO cells. Error bars show s.d.; *** P<0.001. FIG. 12C—pre-formed tumors. Mice bearing tumors formed (˜1 cm) prior to the Pc(4-4) injection. FIG. 12D tumor volume (cm3). Tumors generated throughout the experimental period versus injections of Pc(4-4) initiated 3 weeks post cell inoculation. Each treatment group contained 7 mice. This is a representative of three times performed experiments. Error bars show s.d.; ** P<0.01.\nIn this experimental design, RKO/hPar4 clone/s (1×10^6 cells) were implanted in nude mice (Par4 levels in the clones) (FIG. 12A-12D). Tumors were slowly formed (during 3 weeks). At the time tumors were distinctly observed (˜1 cm length, FIG. 12C), the Pc(4-4) inhibitor was injected s.c. in the vicinity of the tumor site (3×week; 5 mg/kg). At the time the experiment was terminated large RKO/hPar4 tumors were observed. […] Activation of PAR4 leads to the phosphorylation of EGFR. AYPGKF activation of PAR4 leads to pTyr-EGFR. This was shown by co-transfection of HEK293 cells with hPar4 and egfr followed by AYPGKF PAR4 activation. Western blot detection of EGFR Tyr (Y)-phosphorylation (pY-EGFR), was carried-out by anti phospho-Tyr antibodies (FIG. 13A). […]", "note": "Entries after “also recorded” stand apart in the source; their conditions may differ. Numbered stars: 1 amine (or outer) side, 2 acyl side, 3 side chain; on linkers, the order of the positions; unused ones are H or OH. Bridge positions count the residues as written; N and C are the ends. Square brackets hold non-standard residues; d marks the D form. Ends that are not written are not given here. GlyBU(C4) = Gly building unit (N-alpha-functionalized Gly) carrying a C4 alkyl chain (n = m = 4), bridged through a urea group; CO = O=C([*:1])[*:2]", "data": [{"substance": "Pc(4-4): backbone cyclic analog of Formula I, m=n=4, ring size 30 atoms (S[GlyBU(C4)]EFRDK[GlyBU(C4)]; bridge 2-8 via CO; not fully specified; printed as SZ1EFRDKX3)", "values": [{"measurement": "size of pre-formed tumors", "value": "distinctly smaller tumors; also recorded: inhibits"}]}]}
